Common to all, as to assay type: physicochemical
Holding throughout (details): organic solvent or mixture

The nature of data set [1]: Solubility of 3 in HOAc, 2-MeTHF and THF. The method, then:
Although the reaction was high yielding, the amount of solvent required to perform the reaction limited the throughput due to the poor solubility of 3 in EtOAc. It was therefore desirable to find an alternate solvent for this reaction to prevent the risk of poor conversion while increasing the volume efficiency. To address this issue, the solubility of 3 was evaluated in HOAc and THF in addition to 2-MeTHF. […] In one embodiment, THF is used for the hydrogenation reaction. In another embodiment, 2-MeTHF is used for the hydrogenation reaction. […] In one embodiment, when the hydrogenation reaction was run at 40 psi hydrogen pressure at 40° C., the reaction was typically complete in 2 to 3 hours. The final variable which was investigated was catalyst loading. The initial 10 wt % loading was reduced to 5 wt % without any decrease in reaction time, yield or purity.

Data set [2] can be described thus: Solubility of 3 in 2-MeTHF/heptane mixtures. The method, then: A series of experiments were performed to test the solubility of 3 in a mixture of 2-MeTHF and heptane.
Data set [3] can be described thus: Solubility of 6 in extraction solvents. The method, then:
While this initial trial was very promising, in subsequent experiments on larger scale, complications were encountered. One issue was that during the neutralization of acetic acid, emulsions were often obtained. Multiple solvent systems were investigated and the solubility of 6 was evaluated to estimate the efficiency of the extraction (Table 17).

The nature of data set [4]: Solubility of 7 in a selection of solvents. An excerpt: Isolation of 7 from the MSA aqueous layer was completed by addition of DCM followed by basification with aqueous NaOH to extract the 7 free base into the DCM layer. […] Isolation from the DCM solution was developed by concentrating the volume of the DCM to induce crystallization followed by the addition of heptane as an anti-solvent. […] Possible solvents candidates which could be used to efficiently extract 7 were limited to DCM due to the poor solubility of 7 in a variety of common solvents (Table 19).

The structures appear in SMILES notation. In brackets after ≈: the same amount, converted by molar mass.

As a reminder, the solubility is the dissolved amount per volume that the medium holds. Consider `CC(C)(C)OC(=O)NC1(c2ccc(Nc3nc(-c4ccccc4)ccc3[N+](=O)[O-])cc2)CCC1` [Compound 3, tert-butyl (1-(4-((3-nitro-6-phenylpyridin-2-yl)amino)phenyl)cyclobutyl)carbamate], for which the solubility was 100000 µg/mL (≈ 217 mM) in data set [1] (in 2-MeTHF); 24800 µg/mL (≈ 53.9 mM) in data set [1] (in HOAc); 155000 µg/mL (≈ 337 mM) in data set [1] (in THF); 100000 µg/mL (≈ 217 mM) in data set [2] (2-MeTHF/heptane 1/0 (v/v), 2-MeTHF/heptane (v/v) 1/0, 25° C.); 300 µg/mL (≈ 0.651 mM) in data set [2] (2-MeTHF/heptane 2/8 (v/v), 2-MeTHF/heptane (v/v) 2/8, 25° C.); 1200 µg/mL (≈ 2.61 mM) in data set [2] (2-MeTHF/heptane 3/7 (v/v), 2-MeTHF/heptane (v/v) 3/7, 25° C.). Moreover, the solubility in data set [2] (2-MeTHF/heptane 4/6 (v/v), 2-MeTHF/heptane (v/v) 4/6, 25° C.) was determined as 3800 µg/mL (≈ 8.25 mM); in data set [2] (2-MeTHF/heptane 5/5 (v/v), 2-MeTHF/heptane (v/v) 5/5, 25° C.), 4500 µg/mL (≈ 9.77 mM); in data set [2] (2-MeTHF/heptane 6/4 (v/v), 2-MeTHF/heptane (v/v) 6/4, 25° C.), 8000 µg/mL (≈ 17.4 mM); in data set [2] (2-MeTHF/heptane 7/3 (v/v), 2-MeTHF/heptane (v/v) 7/3, 25° C.) it was 13000 µg/mL (≈ 28.2 mM); in data set [2] (2-MeTHF/heptane 8/2 (v/v), 2-MeTHF/heptane (v/v) 8/2, 25° C.), 23000 µg/mL (≈ 49.9 mM); in data set [2] (2-MeTHF/heptane 9/1 (v/v), 2-MeTHF/heptane (v/v) 9/1, 25° C.), 32000 µg/mL (≈ 69.5 mM).
For the compound `CC(C)(C)OC(=O)NC1(c2ccc(-n3c(-c4cccnc4N)nc4ccc(-c5ccccc5)nc43)cc2)CCC1` [Compound 6, tert-butyl (1-(4-(2-(2-aminopyridin-3-yl)-5-phenyl-3H-imidazo[4,5-b]pyridin-3-yl)phenyl)cyclobutyl)carbamate], the solubility stood at 25000 µg/mL (≈ 46.9 mM) in data set [3] (Solvent 2-MeTHF); 126000 µg/mL (≈ 237 mM) in data set [3] (Solvent DCM); 6600 µg/mL (≈ 12.4 mM) in data set [3] (Solvent EtOAc); 2900 µg/mL (≈ 5.44 mM) in data set [3] (Solvent IPAc); 690 µg/mL (≈ 1.3 mM) in data set [3] (Solvent MTBE); 110000 µg/mL (≈ 207 mM) in data set [3] (Solvent THF). Moreover, the solubility in data set [3] (Solvent Toluene) amounted to 4500 µg/mL (≈ 8.45 mM).
Regarding `Nc1ncccc1-c1nc2ccc(-c3ccccc3)nc2n1-c1ccc(C2(N)CCC2)cc1` [Compound 7, 3-(3-(4-(1-aminocyclobutyl)phenyl)-5-phenyl-3H-imidazo[4,5-b]pyridin-2-yl)pyridin-2-amine], the solubility in data set [4] (Solvent 2-MeTHF) was 4800 µg/mL (≈ 11.1 mM); in data set [4] (Solvent DCM), 73000 µg/mL (≈ 169 mM); in data set [4] (Solvent EtOAc), 5600 µg/mL (≈ 12.9 mM); in data set [4] (Solvent IPAc) it was 2900 µg/mL (≈ 6.7 mM); in data set [4] (Solvent MTBE), 760 µg/mL (≈ 1.76 mM); in data set [4] (Solvent THF), 24000 µg/mL (≈ 55.5 mM). In data set [4] (Solvent Toluene), the solubility was found to be 9300 µg/mL (≈ 21.5 mM).

Source of the values: patent publication US9834556B2, “Process of preparing 3-(3-(4-aminocyclobutyl)phenyl)-5-phenyl-3H-imidazo[4,5-B]pyridin-2-YL)pyridin-2-amine” (ARQULE, INC., priority 2014, dated 2017).
